Results from publication PMC12054212 (BMC Microbiology, 2025).

How the values were obtained:
Metallo-L1 β-lactamase [1] = biological target: T1, Metallo-L1 β-lactamase (Stenotrophomonas maltophilia, UniProt B2FTM1); assay: nitrocefin hydrolysis inhibition assay, absorbance at […] nm, […] enzyme; assay type: biochemical
Metallo-L1 β-lactamase [2] = biological target: T1, Metallo-L1 β-lactamase; assay: nitrocefin hydrolysis inhibition assay, absorbance at […] nm, positive control; assay type: biochemical

T1 sequence (B2FTM1 22-290): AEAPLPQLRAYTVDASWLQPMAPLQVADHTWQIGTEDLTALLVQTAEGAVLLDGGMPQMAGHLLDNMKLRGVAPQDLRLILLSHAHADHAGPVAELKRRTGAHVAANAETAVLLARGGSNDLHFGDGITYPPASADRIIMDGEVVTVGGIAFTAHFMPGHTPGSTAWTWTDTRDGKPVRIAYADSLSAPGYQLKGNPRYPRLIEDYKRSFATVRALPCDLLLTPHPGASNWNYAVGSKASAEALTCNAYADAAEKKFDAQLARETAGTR

IC50 (Metallo-L1 β-lactamase [1]) [µM] | IC50 (Metallo-L1 β-lactamase [2]) [µM] | Structure (SMILES)
23 |  | Oc1c2ccccc2cc2cnc3ccccc3c12 [Benzo[j]phenanthridin-12-ol]
 | 2.24 | O=C(O)CN(CCN(CC(=O)O)CC(=O)O)CC(=O)O [EDTA]
